Test results reported in patent US8338414B2, “Immunosuppressive agent and anti-tumor agent comprising heterocyclic compound as active ingredient” (Zenyaku Kogyo KabushikiKaisha, priority 2005, dated 2012).
pIC50: −log10 of the molar value. Where two headings read alike, the source gives them in different places.

Experiments:
fulminant hepatitis = test: Fulminant hepatitis model (galactosamine and LPS); type: in vivo, mouse; settings: BALB/c mice, galactosamine 800 mg/kg and LPS 110 μg/kg i.p.
Method: BALB/c male mice (7 weeks old, purchased from Charles River Laboratories Japan Inc.) were used in the experiment. After having orally administered the test substances suspended in 5% HPC, galactosamine (800 mg/kg) and LPS (110 μg/kg) were intraperitoneally administered. Then, survival rates at 72 hours after administration were obtained.

[1] = test system: allogeneic mixed lymphocyte reaction; test: Allogeneic mixed lymphocyte reaction; type: cell-based, mouse; settings: Mus musculus, Lymphocyte; C57BL/6N spleen stimulator cells, BALB/c lymph node responder cells, 86 hours, BrdU
In short: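 Stimulators were C57BL/6N female spleen cells and responders BALB/c female peripheral lymph node mononuclear cells (mice 8-10 weeks old). Cells suspended at 2×10^6 cells/mL in RPMI 1640 with 10% FBS and antibiotics.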

mouse spleen cells = test: Proliferation inhibition assay for mouse spleen cells; type: cell-based; settings: 72 h, 3 days, Alamar Blue
In short: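 C57BL/6N female mouse spleen cells (2×10^6 cells/mL) stimulated with Con A (3 μg/mL), LPS (100 μg/mL) or anti-mouse IgM (100 μg/mL) alongside serially diluted compounds, 3 days at 37° C, 5% CO2. Alamar Blue added for a further day; fluorescence read at ex 530/em 590 nm.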

[2] = Toxicologic test for single oral administration; settings: rat, in vivo, po, 1200 mg/kg
[3] = test system: Rabbit synoviocytes HIG-82; test: Inhibition assay for proliferation of rabbit synoviocyte; type: cell-based; settings: Oryctolagus cuniculus, 72 h; HIG-82, 3 days, Alamar Blue
Daudi cells = test: Therapeutic action on human B lymphoma xenografted model; type: in vivo, mouse; settings: NOD/SCID mice, Daudi subcutaneous, 400 mg/kg oral after day 20
Method: Daudi cells (1×10^7 cells/mL) cultured in RPMI 1640 medium (containing 10% fetal bovine serum, 10 mM HEPES, 1 mM pyruvic acid, 4.5 g/L glucose, 100 units/mL penicillin, and 0.1 mg/mL streptomycin) were implanted subcutaneously in the chests of 8 week-old NOD/SCID mice. After day 20 when the tumor had grown to the volume of about 800 mm^3, Compound 4 (400 mg/kg) was administered orally.

[4] = test system: human peripheral blood mononuclear cells; test: Proliferation inhibition assay for human peripheral blood mononuclear cells; type: cell-based; settings: Homo sapiens, 72 h; PBMC, anti-CD3 and anti-CD28 antibody, 3 days, Alamar Blue
In short: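 PBMC from healthy donors (1×10^5 cells/mL) in RPMI 1640 with 10% FBS were stimulated with plate-bound anti-CD3 plus anti-CD28 (1 μg/mL). Serially diluted compounds were added and cells were cultured 3 days at 37 °C. Alamar Blue was then added for 1 day and fluorescence was read at ex 530/em 590 nm.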

THP-1 cells = test: Proliferation inhibitory activity on hematologic neoplasm cells, THP-1; type: cell-based; settings: Homo sapiens, THP-1, 72 h; 3 days, Alamar Blue
[5] = test system: collagen-induced arthritis; test: Collagen-induced arthritis inhibitory action; type: in vivo, mouse; settings: DBA1 mice
Method: Bovine type II collagen suspended in Freund's complete adjuvant was intradermally administered to the base of tail of DBA1 male mice (7 weeks old, purchased from Charles River Laboratories Japan Inc.) on day 1 and day 21. Then, from day 28 when 50% of the mice developed arthritis, the test substances suspended in 0.5% hydroxypropylcellulose (HPC) were orally administered on consecutive days. Here, the efficacy was evaluated by scoring the arthritis. Specifically, for each paw, the degree of arthritis was evaluated according to: no symptoms: 0; redness or swelling of one joint: 1; redness or swelling for two or more joints: 2; redness or swelling over the entire paw: 3; and maximum redness or swelling over the entire paw: 4.

## FC(F)c1nc2ccccc2n1-c1nc(N2CCOCC2)nc(N2CCOCC2)n1 [Compound 4, 2-(2-Difluoromethylbenzimidazol-1-yl)-4,6-dimorpholino-1,3,5-triazine]
Fulminant hepatitis; 50 mg/kg oral
  Survival Rate after 72 Hours: 60%
Fulminant hepatitis; 100 mg/kg oral
  Survival Rate after 72 Hours: 83%
[1]
  pIC50: 6.66
Mouse spleen cells; LPS 100 μg/mL, read-out: Inhibition of LPS response
  pIC50: 7.00 to 9.00
Mouse spleen cells; anti-mouse IgM antibody 100 μg/mL, read-out: Inhibition of Anti-IgM antibody response
  pIC50: 7.00 to 9.00
Mouse spleen cells; concanavalin A 3 μg/mL, read-out: Inhibition of Con A response
  pIC50: 7.00 to 9.00
[2]
  death after single oral dose: no examples of death were recognized
[3]
  pIC50: 6.02
Daudi cells
  increase in tumor volume: inhibited
[4]
  pIC50: 6.51
THP-1 cells
  pIC50: 6.29
[5]; 50 mg/kg oral, after day 44 (conditions exacerbated after day 40)
  arthritis score, difference versus control group: no significant difference was recognized in comparison with the control group
[5]; 50 or 100 mg/kg oral, after day 30, Dunnett's test P<0.05
  arthritis score, efficacy versus control group: a statistically significant efficacy was recognized
[5]; oral on consecutive days from day 28
  progression of collagen-induced arthritis (arthritis score): inhibited the progression of the collagen-induced arthritis in a dose-dependent manner
